How the values were obtained:
[1] = NOVARTIS: Cytotoxicity against human hepatocellular carcinoma cell line (Huh7); assay type: toxicity, cell-based, Huh-7; conditions: Huh7 cells (hepatocellular carcinoma cell line)
Plasmodium falciparum [2] = assay: NOVARTIS: Inhibition of Plasmodium falciparum W2 (drug-resistant) proliferation in erythrocyte-based infection assay; assay type: functional, organism-based; conditions: Plasmodium falciparum, W2; read-out: EC50
Plasmodium falciparum [3] = assay: NOVARTIS: Inhibition of Plasmodium falciparum 3D7 (drug-susceptible) proliferation in erythrocyte-based infection assay; assay type: functional, organism-based; conditions: Plasmodium falciparum, 3D7

Structure (SMILES)	CC50 [1]	EC50 (Plasmodium falciparum [2])	EC50 (Plasmodium falciparum [3])
COC(=O)COc1ccc(/C=C2/SC(=Nc3ccc(F)cc3)NC2=O)cc1	> 100000 nM	1850 nM	> 12500 nM
c1ccc2cc3c(Nc4ccc(N5CCCCC5)cc4)ccnc3cc2c1	67700 nM	1220 nM	743 nM
Oc1ccccc1CN1CCN(C(c2ccccc2)c2ccccc2)CC1	8920 nM	166 nM	744 nM
O=S(=O)(Oc1ccc2ccccc2c1Cc1c(OS(=O)(=O)c2ccccc2)ccc2ccccc12)c1ccccc1	> 100000 nM	1840 nM	> 12500 nM
O=C(C1CCN(c2nnnn2-c2ccccc2)CC1)N1CCc2ccccc2C1	> 100000 nM	1790 nM	1300 nM
CCN1CCC(NCCC(c2ccccc2)c2ccccc2)CC1	3610 nM	66 nM	280 nM
N#Cc1ccccc1N1CCCCC1	> 100000 nM	1790 nM	> 10800 nM
O=C(O)C=CC(=O)N(C1CCCCC1)C1CCCCC1	> 100000 nM	1860 nM	> 12500 nM
O=c1c2ccccc2[nH]c2cc(Cl)ccc12	> 10000 nM	178 nM	95.5 nM
OCCSc1nc(-c2ccccc2)nc2ccc(F)cc12	> 10000 nM	> 183 nM	> 1250 nM
Cc1cc(C)cc(NCC(O)Cn2c3ccc(Cl)cc3c3cc(Cl)ccc32)c1 (configuration not stated)	31200 nM	569 nM	2220 nM
CCCc1cc(-c2onc(C)c2-c2ccc(C(=O)OCC)o2)c(O)cc1OC	18500 nM	346 nM	413 nM
O=C(Nc1ccc(-c2nc3ccccc3[nH]2)cc1)c1ccc(Cl)c(Cl)c1	> 100000 nM	1820 nM	523 nM
Cc1cc(C)c(NC(=S)N(CCCN2CCCCC2)Cc2cccs2)c(C)c1	> 10000 nM	179 nM	> 1540 nM
CC1(C)N=C(N)N=C(N)N1c1ccc(Oc2ccc(Cl)cc2)c(Cl)c1	35100 nM	628 nM	58 nM
Cc1ccc(-n2nnnc2SCc2nc(-c3cccc([N+](=O)[O-])c3)no2)c(C)c1	> 100000 nM	1850 nM	> 4690 nM
N#Cc1c(N)nc(SCC(=O)c2ccc([N+](=O)[O-])cc2)c(C#N)c1-c1ccccc1	> 100000 nM	1840 nM	4810 nM
CCCS(=O)(=O)c1c(S(=O)(=O)CCC)c2ccc(C(C)=O)cn2c1C(=O)c1ccc(C)cc1	> 100000 nM	1830 nM	> 12500 nM
C=CCn1c(SCC(=O)Nc2ccccc2C)nc2sc(C)cc2c1=O	> 100000 nM	1800 nM	4280 nM
CCOC(=O)c1ccc(NC(=O)c2ccc3nc(NC(=O)c4ccc(C(=O)OC)cc4)sc3c2)cc1	> 100000 nM	1800 nM	> 6510 nM
Fc1ccccc1Nc1nc(NCC2CCCO2)c2ccccc2n1 (configuration not stated)	34200 nM	637 nM	669 nM
COc1cccc(-c2nc3c(OC)ccc(OC)c3cc2CNCC(C)(C)CN(C)C)c1	> 10000 nM	186 nM	244 nM
CCCCCCCCC(=O)N(C)CCCNc1ccnc2cc(Cl)ccc12	> 10700 nM	196 nM	321 nM
CN(C)c1ccc(C=C2SC(=N)N(c3nccs3)C2=O)cc1	> 100000 nM	1830 nM	5050 nM
CCCCN1Cc2ccc(C(N)=O)cc2N=C1C1CC1	> 11400 nM	212 nM	62 nM
COc1ccc(-n2c(SC(C)C)nc3sc4c(c3c2=O)CCN(C)C4)cc1	> 100000 nM	1850 nM	2210 nM
CC(C)Cc1ccc(-c2csc(NC(=O)C3C4CCC(C4)C3C(=O)O)n2)cc1 (configuration not stated)	> 100000 nM	1850 nM	772 nM

Structure (SMILES)	CC50 [1]	EC50 (Plasmodium falciparum [2])	EC50 (Plasmodium falciparum [3])
C=CCn1c(SCC(=O)c2cc(C)n(-c3ccccc3F)c2C)nc2sc3c(c2c1=O)CCCC3	> 10000 nM	> 180 nM	> 1250 nM
CCOC(=O)C1(CC2CCCCO2)CCN(Cc2cccc(C)n2)CC1 (configuration not stated)	> 100000 nM	1780 nM	> 8370 nM
COc1ccc2c(c1)C(=NN=C(N)N)c1cc(OC)ccc1-2	> 10000 nM	178 nM	123 nM
CC1CCCCN1CCCN(Cc1c2ccccc2cc2ccccc12)C(=O)c1ccccc1Cl (configuration not stated)	> 1740 nM	31.2 nM	878 nM
O=C(Nc1cnc2ccccc2c1)c1cccc(-n2cnnn2)c1	> 10000 nM	182 nM	174 nM
Cc1nc2ccc(NC(=O)C3CC3)cc2c(=O)n1Cc1ccc(Cl)cc1	> 100000 nM	1820 nM	1170 nM
Oc1ccc(Br)c(C(Nc2ccccn2)c2ccc3cccnc3c2O)c1 (configuration not stated)	15700 nM	281 nM	555 nM
COC(=O)C1=C(C)NC2=C(C(=O)c3ccccc32)C1c1ccc(OCC#N)c(OC)c1 (configuration not stated)	84900 nM	1530 nM	590 nM
Cc1cc2c(cc1C)NC(c1ccccc1F)C1=C(CC(C)(C)CC1=O)N2 (configuration not stated)	> 100000 nM	1790 nM	1650 nM
C[N+](C)(C)c1nc(N2CCOCC2)nc(N(c2ccccc2)c2ccccc2)n1	> 10000 nM	179 nM	63.2 nM
Cc1nc2ccccn2c1C1(O)C(=O)Nc2c(Cl)cc(Cl)cc21 (configuration not stated)	> 10000 nM	178 nM	449 nM
CSc1ccc(NC(=O)N2CCCn3cccc3C2c2ccc(C(F)(F)F)cc2)cc1 (configuration not stated)	> 100000 nM	1810 nM	3990 nM
COc1ccc(C(C)=O)cc1N1C(=O)C2C(C1=O)C1(c3ccccc3)C(=O)C2(c2ccccc2)C(c2ccc(C)cc2)=C1c1ccc(C)cc1 (configuration not stated)	> 100000 nM	1800 nM	2460 nM
CC(=O)Nc1ccc(S(=O)(=O)NC2C(C)(C)C3CC[C@]2(C)C3)cc1 (some centres not stated)	> 10000 nM	> 184 nM	> 1250 nM
CCOC(=O)CCC(=O)Oc1cc(C(C)(C)C)nn1-c1ccc(Cl)c(Cl)c1	> 11100 nM	203 nM	> 1230 nM
CCOc1ccc(C(=O)C(C)[n+]2cc(-c3ccc(OC)cc3)n3c2CCC3)cc1 (configuration not stated)	33200 nM	595 nM	506 nM
C=CCc1c(C)nc2ccc(Br)cc2c1O	> 100000 nM	1780 nM	1600 nM
Cn1c(=O)[nH]c(=O)c2c1nc(N1CCCCCC1)n2CC(O)COc1ccc([N+](=O)[O-])cc1 (configuration not stated)	> 100000 nM	1860 nM	> 12500 nM
CCCCCOC(=O)C1=C(C)NC2=C(C(=O)CC(C)(C)C2)C1c1ccncc1 (configuration not stated)	> 100000 nM	1860 nM	5190 nM
Cc1cccc(NC(=O)C2C3C=CC4(O3)C2C(=O)N(CC2COc3ccccc3O2)C4C(=O)NC2CCCC(C)C2C)c1 (configuration not stated)	> 100000 nM	1860 nM	> 8070 nM
Cc1nc(C23CC4CC(CC(C4)C2)C3)cs1	> 100000 nM	1860 nM	> 12500 nM
COc1cccc(CCOc2ccc3c(c2)C(=O)N(C(C(=O)NC(C)(C)C)c2cccc(OC)c2)C(CO)C(=O)N3)c1 (configuration not stated)	> 9100 nM	169 nM	153 nM
COc1ccc(OC)c(C(C(=O)NC2CCCC2)N(C(=O)c2snc(C(N)=O)c2N)c2ccccc2OC)c1 (configuration not stated)	> 100000 nM	1790 nM	2540 nM
CC(Nc1ccccc1)C(=O)Nc1cc(C(F)(F)F)ccc1Cl (configuration not stated)	71400 nM	1290 nM	1220 nM
Cc1cccc(-c2nc3cc(NC(=S)NC(=O)c4ccc(Cl)cc4)ccc3o2)c1	> 10000 nM	183 nM	> 1660 nM
CC(=O)N(C1=C(N(C)C)C(=O)c2ccccc2C1=O)c1cc(C)cc(C)c1	2230 nM	41.5 nM	23 nM
CC(Cc1ccccc1)NCCCCCCCNC(C)Cc1ccccc1 (configuration not stated)	5900 nM	105 nM	268 nM

Reference: ChEMBL document CHEMBL1156829 (Proc Natl Acad Sci U S A, 2008)
